In data set [1] the test system is plasma protein. Set-up: method as in earlier work. Particulars: cited from earlier work.
Data set [2] has as its system mice brain capillary endothelial cells (BCECs). In words: AMPB uptake by BCECs, HPLC. In kind it is cell-based. Particulars: 30, 60, 120, 180 min, compared with AMPB group. The method, then: The mice brain capillary endothelial cells (BCECs, cat. no. BNCC35187) were purchased from Beijing Beina Chuanglian Biotechnology Research Institute (Beijing, China). BCECs were resuscitated in a constant temperature water bath at 37°C and then inoculated in a petri dish. The cells were cultured with the 1640 medium containing 10% FBS in a 5% CO2 cell incubator at 37°C. The culture medium was changed every other day, and the cells were digested with 0.25% trypsin when they converged and proliferated to form a full layer at the bottom of the dish. 1 mL cell suspensions were seeded in 12-well plates at a density of 1 × 10^5 cells/mL per well. The drug was administered after the cells being completely adherent to the wall. 2.16 μM AMBP solution was prepared with the 1640 medium and then was used to prepare POS solution at concentrations of 2.85 μM, 5.71 μM, and 11.42 μM, 5 μM zosuquidar, 5 μM Ko143, 1 mM elacridar, and 40 g/L albumin solution, respectively.
The cells were randomly divided into the following 8 groups: 2.16 μM AMBP, 2.16 μM AMBP+POS (2.85 μM, 5.71 μM, and 11.42 μM), 2.16 μM AMBP+5 μM zosuquidar, 2.16 μM AMBP+5 μM Ko143, 2.16 μM AMBP+1 mM elacridar, and 2.16 μM AMBP+40 g/L albumin. Three wells were set at each time point in each group and cultured at 37°C. Cell samples were collected at 30 min, 60 min, 120 min, and 180 min after drug administration, respectively. BCECs were eluted with Hanks' balanced salt solution for 3 times and then incubated with 1% Triton X-100 (200 μL/per well) at 4°C for 12 h to lyse the cells.

Data set [3] can be described thus: HPLC analysis of the content of AMPB in mice plasma and brain tissue. It is filed as in vivo, KM mice. Particulars: compared with AMPB group; AMPB 3 mg/kg iv q.d.; POS 90 mg/kg gavage, zosuquidar 20 mg/kg, Ko143 10 mg/kg, elacridar 2.5 mg/kg iv, b.i.d. 4 days; 4 h after last administration. The method, then:
POS, zosuquidar, Ko143, and elacridar were administered for 4 consecutive days (b.i.d., 9 a.m. and 9 p.m).
4 h after the last administration, the mouse eyeball was taken for blood sample acquisition, in a commercial 1.5 mL centrifuge tube containing the anticoagulant EDTA, with sterilized ophthalmic bending forceps. Samples were centrifuged at 3000 rpm for 10 min. And the bottom plasma was gently extracted and separated with micropipeter. Then, plasma proteins were precipitated by adding 300 μL methanol to 100 μL plasma, followed by vortex for 10 s and let it stand for 5 min. After that, the samples were centrifuged at 4°C, 13000 rpm, for 10 min. Finally, the plasma test solution was fulfilled by filtering it through the 0.22 μm microporous membrane.
After the completion of blood, the mice brain was quickly removed. Moderate brain tissue samples were mixed with physiological saline for homogenate preparation. And proteins were precipitated by adding 300 μL methanol to 100 μL homogenate, followed by vortex for 10 s, and let it stand for 5 min, and then centrifuged at 4°C, 13000 rpm, for 10 min. Finally, the brain test solution was fulfilled by filtering it through the 0.22 μm microporous membrane. […] The analytical column was a Diamonsil (2) C18 column (250 mm ×4.6 mm, 5 μm) maintained at 30°C. The mobile phase consisted of 10 mM ammonium acetate aqueous solution (PH4) and acetonitrile, with the flow rate of 1.0 mL/min and the injection volume of 50 μL.

Data set [4] concerns Cryptococcus neoformans. In words: Counting of Cryptococcus neoformans colonies in the brain tissue. In kind it is in vivo. The following applies: cryptococcal meningitis mice; AMPB 3 mg/kg, POS 180 mg/kg, 14 days; p < 0.01 compared with model group.
Method: Except the control group, the mice in the other four groups were all injected with the lateral ventricular cryptococcus suspension at the dose of 1 × 10^8 CFU/mL, 5 μL for each mouse [19]. And the control group was injected with the same volume of normal saline. […] After 5 days, mice in each group were administered with the corresponding drugs mentioned above, continuously for 14 days. And the time and frequency of administration are described above. The mice were then anesthetized with ether for 24 h after the last administration. Next, the brain tissue was promptly removed for H&E staining and colonization detection of Cryptococcus neoformans. The brain tissue was homogenized with normal saline at a ratio of 1 : 1 (g : v). And then, 100 μL homogenate suspension was gradient diluted to concentrations of 1, 0.1, 0.01, and 0.001 g/mL. At each concentration, 10 μL of brain tissue suspension was uniformly applied to yeast extract peptone dextrose medium and cultured in a 30°C incubator for 48 h [22]. Then, the colony count of cryptococcus neoformans was performed.
The subject of data set [5] is plasma protein. In words: Balanced (equilibrium) dialysis of free AMPB in in vitro plasma. It is filed as in vitro ADME, mouse. Particulars: 37°C, 6 h. Here is the method: (§1) The equilibrium dialysis experiments were performed by the Thermo Fisher Scientific rapid equilibrium dialysis (RED) device. […] The prepared sample solutions were added into the holes of RED plate, respectively, with a 300 μL sample loading. In the corresponding buffer holes, 550 μL, 1% Triton X-100 solution was added. After the sample loading was completed, the sample was put into a 37°C constant temperature oscillator, and the dialysis was balanced at 100 rpm for 6 h. […] And then, the protein or drug-protein complexes with a molecular weight ≥ […] were retained by adding 1 mL of drug-containing plasma mixture into the Centrifree® overfiltration unit and centrifuging it at 13000 rpm and 4°C for 20 min.

Data set [6] deals with plasma protein. Description: Ultrafiltration analysis of free AMPB in in vitro plasma. It is filed as in vitro ADME. The following applies: 37°C, 2 h, p < 0.0001 vs AMPB group. The method, then: as §1
Data set [7] relates to Cryptococcus neoformans. In words: H&E staining of brain pathology in mice with cryptococcal meningitis. In kind it is in vivo. The following applies: AMPB 3 mg/kg, POS 180 mg/kg, 14 days, compared with model group.
Method: Except the control group, the mice in the other four groups were all injected with the lateral ventricular cryptococcus suspension at the dose of 1 × 10^8 CFU/mL, 5 μL for each mouse [19]. And the control group was injected with the same volume of normal saline. […] After 5 days, mice in each group were administered with the corresponding drugs mentioned above, continuously for 14 days. […] The mice were then anesthetized with ether for 24 h after the last administration. Next, the brain tissue was promptly removed for H&E staining and colonization detection of Cryptococcus neoformans. The mouse brain tissue was fixed with 4% paraformaldehyde at 25°C for 24 h, followed by washing with running water for 0.5 h [20, 21]. The brain was then dehydrated with 75%, 85%, 95%, and anhydrous ethanol for 6 h, 10 h, 4 h, and 2 h, respectively. After permeabilization with xylene I for 20 min and xylene II for 15 min, the brain was embedded in paraffin for 3 h and then cut into 5 μm slices using a microtome (RM2235, Leica Biosystems, Wetzlar, Germany) and roasted at 60°C. After dewaxing with xylene, the slices were stained with hematoxylin and eosin. Random photographs of three fields were acquired using a CX22 light microscope at ×400 magnification (Olympus Corporation, Tokyo, Japan).
The mark [8] stands for this setting: 5 μM zosuquidar, 5 μM Ko143 or 1 mM elacridar + 2.16 μM AMPB.

In the case of `C[C@@H]1[C@H](O)[C@@H](C)/C=C/C=C/C=C/C=C/C=C/C=C/C=C/[C@H](O[C@@H]2O[C@H](C)[C@@H](O)[C@H](N)[C@@H]2O)C[C@@H]2O[C@](O)(C[C@@H](O)C[C@@H](O)[C@H](O)CC[C@@H](O)C[C@@H](O)CC(=O)O[C@H]1C)C[C@H](O)[C@H]2C(=O)O` [AMPB, amphotericin B], the “plasma protein binding rate” value with plasma protein [1] was 90%.
As to `COc1ccc2c3c([nH]c2c1)[C@H](CC(C)C)N1C(=O)[C@H](CCC(=O)OC(C)(C)C)NC(=O)[C@@H]1C3` [Ko143], in data set [2] (setting [8]), the “effect on AMPB uptake by BCECs” value is recorded as “no significant effect”. In addition, in data set [3], the “AMPB brain tissue/plasma drug ratio” value is “no effect”, the “brain tissue concentration of AMPB” value is “no effect” and the “plasma drug concentration of AMPB” value was “no effect”.
`CC[C@@H]([C@H](C)O)n1ncn(-c2ccc(N3CCN(c4ccc(OC[C@@H]5CO[C@@](Cn6cncn6)(c6ccc(F)cc6F)C5)cc4)CC3)cc2)c1=O` [POS, posaconazole]: in data set [2] (POS 2.85, 5.71 and 11.42 μM + 2.16 μM AMPB), the “effect on AMPB uptake by BCECs” value is reported as “no significant effect”. The “number of cryptococcus neoformans in the brain (colony culture)” value in the data set with Cryptococcus neoformans [4] is “evidently inhibit”. Also, the “effect on plasma free AMPB (balanced dialysis)” value in the data set with plasma protein [5] (POS 4 μg/mL + AMPB 0.5 μg/mL in mouse plasma, p < 0.05 vs AMPB group) is reported as “prominently elevate”; in the data set on plasma protein [5] (POS 8 μg/mL + AMPB 0.5 μg/mL in mouse plasma, p < 0.01 vs AMPB group), “prominently elevate”. The “effect on plasma concentration of free AMPB (ultrafiltration)” value with plasma protein [6] (POS 4 μg/mL + AMPB 2.0 μg/mL in plasma) and in the data set on plasma protein [6] (POS 8 μg/mL + AMPB 2.0 μg/mL in plasma) was “potentially increase” in each case. Also, in the data set with plasma protein [1], the “plasma protein binding rate” value was 98%. Moreover, in the data set with Cryptococcus neoformans [7], the “cortical pathological injuries (inflammatory cell infiltration, bleeding), H&E staining” value is “improve the above pathological injuries”.
For the compound `COc1cc2c(cc1OC)CN(CCc1ccc(NC(=O)c3cccc4c(=O)c5cccc(OC)c5[nH]c34)cc1)CC2` [elacridar], the “effect on AMPB uptake by BCECs” value in data set [2] (setting [8]) is reported as “no significant effect”.
As to `O[C@@H](COc1cccc2ncccc12)CN1CCN([C@@H]2c3ccccc3[C@@H]3[C@H](c4ccccc42)C3(F)F)CC1` [zosuquidar], in data set [2] (setting [8]), the “effect on AMPB uptake by BCECs” value is “no significant effect”.

Source of the values: publication PMC7719495 (BioMed Research International, 2020).
